Entries after “also recorded” stand apart in the source; their conditions may differ.
Tests used:
EAE = experiment: Animal model of multiple sclerosis (EAE induced with guinea pig MBP); assay type: in vivo, Lewis rats; conditions: EAE rats, oral every day until day 26
Protocol: The oral treatment with a compound of formula (I) was conducted in an animal model of multiple sclerosis. EAE was induced in female Lewis rats with guinea pig MBP (25 μg/rat).

DSS-induced colitis = experiment: DSS-induced ulcerative colitis model; assay type: in vivo, Balb/C Mice
Protocol: The effect of a compound of formula (I) was assessed in an animal model of Ulcerative colitis. 24 Balb/C Mice were divided into […]; control and treatment (n=6). Acute colitis was induced in all groups by adding 2.5% w/v Dextran Sulphate Sodium (DSS) treatment in drinking water for 5-7 days. A compound of Formula I was administered at dose of 3 mg/kg body weight by oral route as a repeated dose for 3 or 6 days, consecutively. […] During day 6 these observations were reduced to 16.66% in control and 0.00% in a compound of Formula I group.
The mean colon lengths were 9.67 cm, 9.88 cm, 11.20 cm and 13.02 cm in day 3 control group, day 6 control group, day 3 a compound of Formula I treated group and day 6 a compound of Formula I treated group respectively. […] The severity of presence of haemorrhages with desquamated cells seen in lumen of colon of control animals was reduced in a compound of Formula (I) treated animals.

[1] = Single oral dose in healthy human subjects: systemic exposure, heart rate, lymphopenia; assay type: in vivo; conditions: humans; for bradycardia: 0.5 mg to 12 mg single oral dose, 72 hours monitoring
Protocol: The observance of bradycardia with S1P1 selective agonists has been reported to be species specific.
Human subjects were treated in cohorts of different dose levels (each cohort=8 human subjects) with a compound of formula (I)@0.5 mg, 2 mg, 6 mg and 12 mg single oral dose.

S1P1 receptor = S1P1 receptor (Homo sapiens, UniProt P21453); experiment: S1P1 receptor degradation (activity v/s degradation margin); assay type: cell-based
S1P1 receptor, sequence (P21453 whole entry): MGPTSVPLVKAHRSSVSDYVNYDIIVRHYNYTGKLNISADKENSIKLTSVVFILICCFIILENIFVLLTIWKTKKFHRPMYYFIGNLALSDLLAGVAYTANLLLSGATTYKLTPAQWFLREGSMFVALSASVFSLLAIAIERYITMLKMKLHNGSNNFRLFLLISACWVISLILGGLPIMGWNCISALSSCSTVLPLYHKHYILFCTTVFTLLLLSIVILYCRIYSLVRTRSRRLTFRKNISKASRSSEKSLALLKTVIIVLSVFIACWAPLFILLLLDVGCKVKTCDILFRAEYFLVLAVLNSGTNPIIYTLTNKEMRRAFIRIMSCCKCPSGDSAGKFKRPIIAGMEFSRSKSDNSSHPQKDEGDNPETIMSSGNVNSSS

Incision mediated pain = experiment: Deep incision wound mediated pain, topical treatment; assay type: in vivo, Sprague Dawley Rats
Description: The total 24 female Sprague Dawley Rats were assigned to two test and two control groups having 6 animals per group. Animals from G1 and G2 received CFA on Day 1 by intraplanter route followed application of test item (0 and 3% respectively), onto injection site from Day 1 to Day 7. Group G3 and G4 animals received deep incision through the skin and fascia of the plantar foot followed by application of test item (0 and 3% respectively), onto the incision site from Day 1 to Day 7. Clinical signs, body weight and pain assessment parameters like Von Frey estimation and FOB was evaluated and the pain reduction results at Day 7 are summarized in Table 7.

[2] = tested on: formalin induced nociception; experiment: Formalin induced nociception (pain); assay type: in vivo, Sprague Dawley rats
Protocol: Forty male Sprague Dawley rats were assigned to different treatment and control groups containing 8 animals/group. The groups were treated with different doses of a compound of Formula I and received either 0.03, 0.3 and 3.0 mg/kg dose, administered orally 30 min before formalin injection. Tramadol hydrochloride (30 mg/kg) was administered orally 30 min before formalin injection as a positive control. Deionized water was used as a negative control (Vehicle) and administered orally 30 min before formalin injection. Individual rats were then gently restrained and formalin (5% in v/v in saline, 50 μl, s.c.) was injected into the plantar surface of the left hind paw using a 27G needle. Post-formalin nociceptive behaviour, paw flinching was recorded for 60 min, in bins of 5 min. The intra plantar injection of formalin (50 μl, 5% v/v) induced marked flinching of the ipsilateral rat paw with typical biphasic response in the vehicle/distilled water treated animals. […] Inhibition of nociceptive behaviour at 0.3 mg/kg (33%, p<0.05) and 3.0 mg/kg (45%, p<0.01) were statistically significant compared to vehicle control.

[3] = Topical treatment of atopic dermatitis patients; assay type: in vivo, human; conditions: human, in vivo; by week 3, 60 mg daily topical; read-out: systemic exposure
Protocol: (§1) Atopic dermatitis patients were treated with the compound of Formula I@60 mg daily dosing as topical treatment for 28 consecutive days.

atopic dermatitis = experiment: Topical treatment of atopic dermatitis patients; assay type: in vivo, human
Protocol: as §1

[4] = Solubility in water / precipitation in buffer; assay type: physicochemical; conditions: listed as compound of formula I
Protocol: To solubilize the free base in water the novel technology AvignaSOL (N,N-Dimethyl hexanamide; patent number: U.S. Pat. No. 9,186,338B2) and its higher derivatives such as octinamide, decamide which improve the absorption of various poorly soluble drugs was used. AvignaSOL as 1-70% ww % assisted the solubilization of free base as 1 gm/20 mL of water. The solubility of free base in water assisted its direct use in various formulation such as creams, gels, solutions which together with the permeation enhancing effect will be harnessed to improve skin penetration and/or bioavailability and in altering the pharmacokinetics and pharmacodynamics profile of free base.
The AvignaSOL having a log P of ˜1.6 hinder the release by increasing the hydrophobicity of the delivery system. […] The combination of compound of formula I with other ingredients including sustained release enhancer with or without AvignaSOL were prepared as novel formulation techniques to improve and/or alter the pharmacokinetics and pharmacodynamics profile of compound of Formula I.

[5] = tested on: LPS mediated systemic inflammation; experiment: LPS-induced sepsis model; assay type: in vivo, Sprague-Dawley rats; conditions: 3 mg/Kg oral 1 h after LPS and every 24 h
Protocol: Sepsis was induced in female Sprague-Dawley rats by LPS (5 mg/kg) administration and treated orally with compound of Formula I (3 mg/Kg) 1 h after and every 24 h thereafter to determine the effect of a compound of formula (I) in this animal model of sepsis (LPS mediated systemic inflammation). Animals were sacrificed at 24 and 72h post LPS treatment.

SMILES: CCCOc1ccc(-c2nc(-c3ccc4oc(C(N)(CO)CO)cc4c3)no2)cc1Cl [compound of formula (I)]
- lymphopenia (EAE): lymphopenia was less; also recorded: short-term and quickly reversed
- DSS-induced colitis, overall (DSS-induced colitis; 3 mg/kg oral daily): improvement of DSS-induced colitis
- mean colon length (DSS-induced colitis; day 3, 3 mg/kg oral): 11.20 cm
- gross pathological observations (emaciated, anal area soiled with blood) (DSS-induced colitis; day 6, 3 mg/kg oral): 0.00%
- mean colon length (DSS-induced colitis; day 6, 3 mg/kg oral): 13.02 cm
- increase in mucus secreting goblet cells (DSS-induced colitis; histopathology day 6): moderate ( 4/6 animals) to minimal (⅙ animals) increase
- infiltration of MNC (DSS-induced colitis; histopathology day 6): minimal in 2/6 animals and mild in ⅙ animals
- thickness of mucosa (DSS-induced colitis; histopathology day 6, compared to control): markedly reduced
- incidence of increase in thickness of mucosa (DSS-induced colitis; histopathology of colon): mild in 3/6 animals and minimal in 2/6 animals
- number of mucus secreting goblet cells (DSS-induced colitis; histopathology of colon): increased moderately ( 4/6)
- severity of haemorrhages with desquamated cells in lumen of colon (DSS-induced colitis; histopathology of colon): reduced
- systemic exposure ([1]; 0.5 mg single oral dose): 0.6 ng/mL
- bradycardia [1]: no bradycardia events
- bradycardia ([1]; listed as S1P1 receptor modulator of formula (I)): did not induce bradycardia
- bradycardia ([1]; listed as compound of Formula I): no dose proportional or dose relevant bradycardia event
- systemic exposure ([1]; 2 mg single oral dose): 2.4 ng/mL
- systemic exposure ([1]; 6 mg single oral dose): 7.1 ng/mL
- systemic exposure ([1]; 12 mg single oral dose): 18.8 ng/mL
- lymphopenia ([1]; dose of ~0.17 mg/kg): no induction of significant lymphopenia
- systemic exposure ([1]; dose of ~0.17 mg/kg): 18.8 ng/mL
- activity v/s degradation margin (S1P1 receptor): greater than 100
- Pain reduction results at Day 7, Incision mediated pain (Incision mediated pain; 3% (G4), Placebo (G3) 0.33): 0.11
- pain relief (Incision mediated pain; 3% topical Day 1 to Day 7, day 7): 67%
- inhibition of nociceptive behaviour ([2]; 0.3 mg/kg oral 30 min before formalin, p<0.05): 33%
- inhibition of nociceptive behaviour ([2]; 3.0 mg/kg oral 30 min before formalin, p<0.01): 45%
- nociceptive behaviour ([2]; 0.03, 0.3 and 3 mg/kg oral 30 min before formalin): inhibited nociceptive behaviour
- concentration at 3 week [3]: 1 to 2.5 ng/mL
- EASI score and pruritus score (atopic dermatitis; 60 mg daily topical, 28 days): reduction compared to baseline
- absolute lymphocyte count (atopic dermatitis; 60 mg daily topical, 28 days): no systemic change in the absolute lymphocyte count
- tolerability (atopic dermatitis; 60 mg daily topical, 28 days): well tolerated
- lymphopenia (atopic dermatitis; by week 3): no lymphopenia event
- solubility in water [4]: soluble in water
- body temperature and organ histopathology [5]: positive impact on the body temperature and organ histopathology

From patent US20230094545A1, “S1P RECEPTOR MODULATORS” (AKAAL PHARMA PTY LTD, priority 2020, published 2023)
